Assay results taken from patent publication US20030083339A1, “Compositions and methods for treating colorectal polyps and cancer” (priority 2001, published 2003).
Marks after values point to notes of the source that are not given here.

Assays:
colon tumors [1] = assay: AOM-induced colon tumors in mouse strain crossbred from 129/Ola and C57BL/6J (Table 3); assay type: in vivo; conditions: 23 weeks; for Body Weight / Colon Tumors Multiplicity = average number of tumors/mouse / Colon Tumors Prevalence (%) = percent of tumor-bearing mice / Colon Tumors Total Number: AOM 10 mg/kg I.P. 4 consecutive weeks
Experimental: The colons and livers were macroscopically examined. […] Tumor size was measured with a caliper. […] In addition, the size of the tumors in wild type mice was large (over 55% of tumors 22 mm^3). The tumors were predominantly observed in the lower half of the descending colon.

colon tumors [2] = assay: AOM-induced colon tumors in F2 mice crossbred with SWR/J (Table 4); assay type: in vivo, mouse; conditions: AOM 10 mg/kg I.P. 4 consecutive weeks, 26 weeks
Experimental: . […] The colons and livers were macroscopically examined. […] Tumor size was measured with a caliper.
In Example 2, clear-cut results were obtained that the AT2 receptor is involved in AOM-induced colon cancer. A concern was that this might be true only in the mouse strain crossbred from 129/OIa and C57BL/6J mouse strains. In order to overcome this problem, the AT2-KO mice in this crossbred strain were back-crossed with SWR/J mice, whose susceptibility to AOM is established. During the course of back-crossing, similar experiments were performed as described in Example 1, using F2 male wild and AT2-KO mice.

[3] = tested on: cytochrome P450 proteins (CYP1A1, 1A2 and 2E1) in liver; assay: inducibility of CYP1A1, 1A2 and 2E1 in the liver after AOM; assay type: in vivo, mouse; conditions: AOM 15 mg/kg bolus I.P.
Source text: Anti-rabbit anti-human CYP1A1/1A2 and CYP2E1 antisera were obtained from Dr. F. P. Guengerich, Department of Biochemistry, Vanderbilt University. See Soucek et al., (1995) Biochem. 34:16013-16021; Shimada et al., (1992) Mol. Pharmacol. 41:856-864. The cross-reactivities of these antibodies to mouse CYP1A1/1A2 and 2E1 have been characterized.
The inducibilities of CYP1A1, 1A2 and 2E1 in the liver were exaimed.

[4] = tested on: O^6-methylguanine adduct in colon DNA; assay: colonic O^6-methylguanine adduct level after AOM, immuno-slot-blot
Experimental: AT2 receptor blocker PD123319 treatment (15 mg/kg/12 h, gavage administration and 50 μg/ml in drinking tap water) was initiated 3 h prior to the AOM treatment. The control group for the AOM treatment received saline. Mice for the short term study were sacrificed 6 h or 24 h after AOM treatment.
Immediately after the mice were sacrificed by cervical dislocation, the colon was excised, washed with phosphate-buffered saline, divided into proximal and distal segments, and snap-frozen in liquid N2. Small portions of each lobe of the liver were also removed and frozen in the same manner. Tissue was digested in a lysis buffer consisting of 10 mM Tris-HCl, pH 7.4, 1 mM EDTA, 1% SDS, 5× SSC and 0.2 mg/ml Proteinase K. DNA was extracted by phenol/chloroform/isoamyl alcohol and precipitated with ice-cold ethanol by standard protocols. Samples were then treated with RNase A (50 mg/ml) and DNA was fragmented by sonication. The concentration of DNA was determined by the absorbance at 260 nm.
DNA samples were heat-denatured for 10 min, immediately chilled on ice, and mixed with an equal volume of 2 M ammonium acetate. […] Relative blot intensities were measured by densitometry using a Fluor-S image analyzer (Bio-Rad Laboratories, Inc., Hercules, Calif., United States of America).

hepatic CYP2E1 = hepatic CYP2E1 protein expression after AOM, Western blot of liver microsomes
Experimental: AT2 receptor antagonist PD123,319 treatment (15 mg/kg/12 h, gavage administration, and 50 μg/ml in drinking tap water) was initiated 3 h prior to the AOM treatment. The liver was dissected out and the microsomal fractions were subjected to SDS-polyacrylamide gel electrophoresis followed by immunoblotting with anti-human CYP2E1 antibodies.
AT2 receptor blocker PD123319 treatment (15 mg/kg/12 h, gavage administration and 50 μg/ml in drinking tap water) was initiated 3 h prior to the AOM treatment. The control group for the AOM treatment received saline. Mice for the short term study were sacrificed 6 h or 24 h after AOM treatment. […] The remaining tissues were frozen in liquid nitrogen and stored at −80° C.
Tissues were individually homogenized by a Polytron homogenizer in three volumes of 1 mM Tris-HCl buffer, pH 7.5, containing 1 mM EDTA, 0.25 M sucrose and protease inhibitor cocktail. The supernatant from 10,000× g centrifugation of the homogenate for 15 min was further centrifuged at 100,000× g for 1 h. The microsomal membranes were suspended in 100 mM NaH2PO4, pH 7.4, 10 mM MgCl2, 20% glycerol, and protease inhibitor cocktail, and 25 μg of the membrane protein was subjected to Western blot analysis.
The liver microsomal membranes were lysed with 0.5 ml lysis buffer (10 mM Tris-HCl (pH 7.4), 1% SDS). After sonication, the lysate was boiled for 5 min. […]

[5] = tested on: colon polyp or adenocarcinoma; assay: Example 1: course of oral PD123319 treatment of colon polyps and colorectal adenocarcinoma; assay type: in vivo
Experimental: PD123319, an angiotensin II receptor (AT2 receptor) antagonist, is available in 1-mg, 10-mg, 50-mg, 100-mg, 250 mg, 500 mg, and 1000 mg tablets for oral administration and in 1-mg, 10-mg, 50-mg, 100-mg, 500 mg, 1000 mg, 5000 mg, and 10,000 mg suppositories for rectal administration.
PD123319 is indicated for the treatment of colorectal cancer including non-malignant polyps of the colon and colorectal adenocarcinoma. There are no known contradictions to treatment with PD123319.
A 12-20 week course of therapy yields a remission of adenocarcinoma (e.g., tumor number and/or volume) in greater than 79% of individuals that are diagnosed with at least one adenocarcinoma. Total dose per day is determined by severity (number and/or cancer stage) as assessed by a treating veterinarian or physician. A preferred course of treatment for a patient with colorectal polyps is 10-30 mg (medication) per kg (body weight) per day. A preferred course of treatment for a patient with colorectal adenocarcinoma is 20-30 mg/kg/day. In certain cases, a course of treatment for a patient with colorectal adenocarcinoma is 100 mg/kg/day administered orally or as a suppository. A preferred maintenance or chemoinhibitory course of therapy is typically 1.0 to 10 mg/kg. […]

AT2 receptor = target: T1, AT2 receptor (Mus musculus, UniProt P35374); conditions: read-out: IC50 for the inhibition of ligand-receptor binding; cited from earlier work
T1 sequence (P35374 1-363): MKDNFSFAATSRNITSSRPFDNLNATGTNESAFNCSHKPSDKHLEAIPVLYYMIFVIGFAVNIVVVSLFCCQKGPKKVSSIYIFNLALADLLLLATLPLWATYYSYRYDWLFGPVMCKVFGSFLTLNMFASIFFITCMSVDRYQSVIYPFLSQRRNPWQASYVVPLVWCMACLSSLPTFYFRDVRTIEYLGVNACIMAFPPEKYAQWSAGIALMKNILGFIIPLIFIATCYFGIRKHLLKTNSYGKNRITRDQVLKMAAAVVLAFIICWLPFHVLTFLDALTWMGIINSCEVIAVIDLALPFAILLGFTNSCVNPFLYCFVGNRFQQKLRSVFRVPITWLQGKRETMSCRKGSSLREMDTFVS

[6] = chronic administration, 30 mg/kg/day, rats; cited from earlier work
[7] = daily administration of the pressor dose (10-50 mg/kg/day), man and animals; cited from earlier work
[8] = target: T2, mouse angiotensin II type 2 receptor (mouse, UniProt P35374 1-363); assay: radioligand-receptor binding on mouse liver and colon plasma membranes
T2 construct: Native receptor in mouse tissue (liver and colon plasma membranes, liver nuclei), not a recombinant construct; also called AT2 receptor; AT2
T2 sequence: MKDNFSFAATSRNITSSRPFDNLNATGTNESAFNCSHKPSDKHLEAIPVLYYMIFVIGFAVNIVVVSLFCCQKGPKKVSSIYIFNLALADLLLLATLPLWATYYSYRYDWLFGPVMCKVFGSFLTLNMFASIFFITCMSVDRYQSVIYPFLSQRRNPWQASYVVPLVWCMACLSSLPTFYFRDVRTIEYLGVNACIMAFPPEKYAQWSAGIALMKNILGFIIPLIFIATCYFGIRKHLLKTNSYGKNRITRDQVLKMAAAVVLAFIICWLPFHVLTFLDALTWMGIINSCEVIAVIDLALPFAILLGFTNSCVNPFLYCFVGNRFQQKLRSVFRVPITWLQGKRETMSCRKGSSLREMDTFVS

[9] = AOM 10 mg/kg bolus I.P., both wild type and AT2-null mice

Molecule: CN=[N+](C)[O-] [AOM, azoxymethane]
- Body Weight (colon tumors [1]; AT2-KO mice): 36.5 ± 1.6 g
- Colon Tumors Multiplicity = average number of tumors/mouse (colon tumors [1]; AT2-KO mice): 0.11
- Colon Tumors Prevalence (%) = percent of tumor-bearing mice (colon tumors [1]; AT2-KO mice): 11.1%
- Colon Tumors Total Number (colon tumors [1]; AT2-KO mice): 1
- Body Weight (colon tumors [1]; Control (wild type) mice): 36.5 ± 4.3 g
- Colon Tumors Multiplicity = average number of tumors/mouse (colon tumors [1]; Control (wild type) mice): 7.38
- Colon Tumors Prevalence (%) = percent of tumor-bearing mice (colon tumors [1]; Control (wild type) mice): 100%
- Colon Tumors Total Number (colon tumors [1]; Control (wild type) mice): 59
- share of tumors 22 mm^3 (large tumors) (colon tumors [1]; wild type mice, AOM 10 mg/kg I.P. 4 weekly): over 55%
- Colon Tumors Multiplicity (colon tumors [2]; AT2-KO F2 male mice): 6.3
- Colon Tumors Prevalence (%) (colon tumors [2]; AT2-KO F2 male mice): 100.0%
- Colon Tumors Total Number (colon tumors [2]; AT2-KO F2 male mice): 50
- Colon Tumors Volume (mm^3) = total tumor volume/number of tumors (colon tumors [2]; AT2-KO F2 male mice): 19.8 ± 3.0 mm^3
- Colon Tumors Multiplicity (colon tumors [2]; Control (wild) F2 male mice): 12.0
- Colon Tumors Prevalence (%) (colon tumors [2]; Control (wild) F2 male mice): 100.0%
- Colon Tumors Total Number (colon tumors [2]; Control (wild) F2 male mice): 96
- Colon Tumors Volume (mm^3) = total tumor volume/number of tumors (colon tumors [2]; Control (wild) F2 male mice): 36.8 ± 3.2* mm^3
- effect on hepatic cytochrome P450 levels ([3]; AT2-KO mice, 24 h after injection): decreased substantially
- effect on levels of cytochrome P450 proteins in liver ([3]; wild type mouse liver): significantly increased
- effect on colonic O^6-methylguanine levels [4, 9]: time-dependently increased
- effect on CYP2E1 protein expression in liver (hepatic CYP2E1; [9]): significantly downregulated

Molecule: Cc1cc(Cn2cnc3c2C[C@@H](C(=O)O)N(C(=O)C(c2ccccc2)c2ccccc2)C3)ccc1N(C)C [PD123319]
- colon polyp or adenocarcinoma number as determined by endoscopy ([5]; 4-8 week course, oral administration): significant reduction
- remission of adenocarcinoma (tumor number and/or volume) ([5]; 12-20 week course of therapy, individuals diagnosed with at least one adenocarcinoma): greater than 79 % of individuals
- IC50 (AT2 receptor): 10 nM
- adverse effects [6]: does not show any adverse effects
- effect on AOM-induced increase in the colonic O^6-methylguanine level ([4]; wild type mice, 15 mg/kg/12h by gavage and 0.35 mg/kg/h in drinking water, 24 h after AOM 10 mg/kg): markedly attenuated
- effect on AOM-induced CYP2E1 downregulation in the liver (hepatic CYP2E1; wild type mice, pretreatment 15 mg/kg/12 h by gavage and 0.35 mg/kg/h in drinking water, AOM 10 mg/kg I.P., 24 h): significantly attenuated

Molecule: CCCCc1nc(Cl)c(CO)n1Cc1ccc(-c2ccccc2-c2nn[nH]n2)cc1 [losartan]
- side effects [7]: no serious side effects

Molecule: XRVYIHPI (sarcosine at position 1 in place of Asp; 125I label, X stands for sarcosine) [[^125I]Sar^1·Ile^8·Ang II]
- binding result [8]: binds
